Data taken from US20040219158A1, “Compositions and methods for diagnosis and therapy of medical conditions involving infection with pseudomonas bacteria” (priority 2003, published 2004).

Target: PA-IIL lectin (Pseudomonas aeruginosa, UniProt Q9HYN5)
Experiment: Inhibition of binding of HRP-labeled fucosylated polymer (Fuc-PAA-biotin) to immobilized PA-IIL lectin
Description: Biotinylated polymers of Fucose (Fuc-PAA-biotin, GlycoTech Corp.) are allowed to couple HRP-labeled streptavidin (KPL labs) overnight at 4° C. PA-IIL lectin is immobilized in plastic microtiter wells and allowed to react with the HRP-labeled fucosylated polymer. Binding is detected by TMB substrate followed by color development with 1 M H3PO4 (FIG. 20). Conditions chosen for the assay are coating with 3 μg/ml PA-IIL and incubation of inhibitor with 2 μg/ml of fucosylated polymer.

Sequence of PA-IIL lectin (Q9HYN5 entry or part of it): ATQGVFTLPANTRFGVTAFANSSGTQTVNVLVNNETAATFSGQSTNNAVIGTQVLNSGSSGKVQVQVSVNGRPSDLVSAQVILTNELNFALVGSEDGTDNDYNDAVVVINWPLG

Structure (SMILES) | inhibition of PA-IIL lectin (negative control saccharide, data not shown) | IC50 [µM]
O=C[C@H](O)[C@@H](O)[C@@H](O)[C@H](O)CO [Galactose] | no inhibition | 
O=C[C@@H](O)[C@@H](O)[C@H](O)[C@H](O)CO [Mannose] |  | 95
